Measured values as given in PubChem BioAssay (NCI).
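Dose response: 5 concentrations. Exposure: 48 h. Format: 96-well plates. Endpoint: linear interpolation; highest concentration if not reached. Here, GI50 denotes the concentration required for 50% inhibition of growth. TGI: concentration producing complete growth inhibition.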

Assays:
Test in all cases: NCI anticancer screen, dose series, 48 h
RPMI-8226 leukemia = test system: RPMI-8226 leukemia
UO-31 renal = test system: UO-31 renal
EKVX NSCLC = test system: EKVX NSCLC
SNB-75 CNS = test system: SNB-75 CNS
HCC-2998 colon = test system: HCC-2998 colon
OVCAR-8 ovarian = test system: OVCAR-8 ovarian
MDA-MB-435 = test system: MDA-MB-435
DU-145 prostate = test system: DU-145 prostate
SK-MEL-2 melanoma = test system: SK-MEL-2 melanoma
TK-10 renal = test system: TK-10 renal

Row | Compound | TGI (RPMI-8226 leukemia) [µM] | TGI (UO-31 renal) [µM] | TGI (EKVX NSCLC) [µM] | TGI (SNB-75 CNS) [µM] | TGI (HCC-2998 colon) [µM] | TGI (OVCAR-8 ovarian) [µM] | TGI (MDA-MB-435) [µM] | TGI (DU-145 prostate) [µM] | TGI (SK-MEL-2 melanoma) [µM] | TGI (TK-10 renal) [µM] | GI50 (RPMI-8226 leukemia) [µM] | GI50 (UO-31 renal) [µM] | GI50 (EKVX NSCLC) [µM] | GI50 (SNB-75 CNS) [µM] | GI50 (HCC-2998 colon) [µM] | GI50 (OVCAR-8 ovarian) [µM] | GI50 (MDA-MB-435) [µM] | GI50 (DU-145 prostate) [µM] | GI50 (SK-MEL-2 melanoma) [µM] | GI50 (TK-10 renal) [µM]
1 | CCn1c2c(c3c(C(=O)OC)c(O)ccc31)C(=O)c1ccccc1C2=O | 27.2 | 27.3 | 59.7 | 39.9 | 34.9 | 30.7 | 32.4 | 38.9 | 30.5 | > 100 |  |  |  |  |  |  |  |  |  | 
2 | CCCCCCCCOCC1S(=O)(=O)OCCOS1(=O)=O | > 100 | > 100 | > 100 | > 100 | > 100 | > 100 | > 100 | > 100 | > 100 | > 100 |  |  |  |  |  |  |  |  |  | 
3 | CCCCCc1c(CCCC)c(=O)[nH]c2cc(CNCC(OC)OC)ccc12 | 13.8 | 26.4 | 31.3 | 29.3 | 7.62 | 32 | 24 | 28 | 28.4 | 28.7 |  |  |  |  |  |  |  |  |  | 
4 | Cc1nn(-c2ccccc2)c(C)c1/C=N/NC(=O)c1sc(=S)n(-c2ccccc2)c1N | 31.2 | > 100 | 8.17 | 3.98 | 13.5 | > 100 | > 100 | > 100 | > 100 | 7.19 |  |  |  |  |  |  |  |  |  | 
5 | CN(C)Cc1cc(C(=O)O)cc(CN(C)C)c1O | > 100 | > 100 | > 100 | > 100 | > 100 | > 100 | > 100 | > 100 | > 100 | > 100 |  |  |  |  |  |  |  |  |  | 
6 | COC(=O)c1c(O)ccc2c1c1c(n2C)C(=O)c2ccccc2C1=O | 64.8 | > 100 | > 100 | 15 | 49.3 | > 100 | > 100 | 72.7 | > 100 | 86.4 |  |  |  |  |  |  |  |  |  | 
7 | O=C(O)C(Cc1cccs1)C(=O)O | > 100 | > 100 | > 100 | > 100 | > 100 | > 100 | > 100 | > 100 | > 100 | > 100 |  |  |  |  |  |  |  |  |  | 
8 | Fc1cccc2nc(-c3ccccc3)cc(OCc3ccccc3)c12 | > 100 | > 100 | > 100 | > 100 | > 100 | > 100 | > 100 | > 100 | > 100 | > 100 |  |  |  |  |  |  |  |  |  | 
9 | OC1CN=C2c3ccccc3C(O)(c3ccc(Cl)cc3)N2C1 (stereo not drawn) | > 100 | > 100 | > 100 | 91.9 | 35.5 | > 100 | > 100 | > 100 | > 100 | 65.7 |  |  |  |  |  |  |  |  |  | 
10 | COc1cc(C2c3cc4c(cc3OC(N3CCOCC3)C2C)OCO4)cc(OC)c1O (stereo not drawn) | > 100 | > 66.4 | > 94 | 7.64 | > 57.8 | > 56.7 | 6.27 | > 100 | 46.3 | 70.6 |  |  |  |  |  |  |  |  |  | 
11 | COc1ccc(N=C/C=C/Nc2ccc(OC)cc2)cc1 | 30.4 | 10.8 | 30.6 | 33.1 | 22.1 | 9.9 | 24 | 32.9 | 31 | 27.4 |  |  |  |  |  |  |  |  |  | 
12 | COc1cccc(C2c3cc4c(cc3OC(N3CCOCC3)C2C)OCO4)c1O (stereo not drawn) | 19.8 | 54.3 | 98.9 | > 100 | 21.9 | 60.1 | 6.57 | 26.6 | 40.7 | 83.6 |  |  |  |  |  |  |  |  |  | 
13 | O=C1CC(O)c2c(Cl)sc(Cl)c21 (stereo not drawn) | 59.7 | 22.8 | 37.2 | 29.5 | 46.3 | 14.2 | > 47.7 | 54.8 | 31.2 | 30.1 |  |  |  |  |  |  |  |  |  | 
14 | NC1CCC(c2cc3ccccc3s2)(N2CCCCC2)CC1 (stereo not drawn) | 2.28 | 5.94 | 11.9 | 25.2 | 2.21 | 3.67 | 2.63 | 16.4 | 2.95 | 19 |  |  |  |  |  |  |  |  |  | 
15 | CCCCNC(=S)Nc1nc(C(=O)NNS(=O)(=O)c2ccccc2)cs1 | > 100 | 85.3 | > 100 | 76.6 | 97.7 | > 100 | 48.4 | > 100 | 43.8 | 99.9 |  |  |  |  |  |  |  |  |  | 
16 | CN(C)CCOc1ccc(-c2c(Oc3ccc(Cl)cc3)c(=O)oc3ccccc23)cc1 | 43.6 | > 28.9 | 37.6 | 25.3 | 12.3 | > 42.8 | > 31.2 | 45.5 | 22.6 | 29.9 |  |  |  |  |  |  |  |  |  | 
17 | CC1=C(C#N)S(=O)(=O)c2c(oc(C)c2C)N1 | > 100 | > 100 | > 100 | > 100 | > 100 | > 100 | > 100 | > 100 | > 100 | > 100 |  |  |  |  |  |  |  |  |  | 

Row | Compound | TGI (RPMI-8226 leukemia) [µM] | TGI (UO-31 renal) [µM] | TGI (EKVX NSCLC) [µM] | TGI (SNB-75 CNS) [µM] | TGI (HCC-2998 colon) [µM] | TGI (OVCAR-8 ovarian) [µM] | TGI (MDA-MB-435) [µM] | TGI (DU-145 prostate) [µM] | TGI (SK-MEL-2 melanoma) [µM] | TGI (TK-10 renal) [µM] | GI50 (RPMI-8226 leukemia) [µM] | GI50 (UO-31 renal) [µM] | GI50 (EKVX NSCLC) [µM] | GI50 (SNB-75 CNS) [µM] | GI50 (HCC-2998 colon) [µM] | GI50 (OVCAR-8 ovarian) [µM] | GI50 (MDA-MB-435) [µM] | GI50 (DU-145 prostate) [µM] | GI50 (SK-MEL-2 melanoma) [µM] | GI50 (TK-10 renal) [µM]
18 | COc1cc2[nH]c(-c3ccccc3)cc(=O)c2cc1OC | > 100 | > 100 | > 100 | > 87.1 | > 87.4 | > 89.4 | 12.2 | > 100 | > 100 | 98.7 |  |  |  |  |  |  |  |  |  | 
19 | COc1ccc(-c2cn3ccnc3c(-c3ccc4ncn(C5CCCCC5)c4c3)n2)cc1 | > 100 | > 100 | > 100 | > 100 | > 100 | > 100 | > 100 | > 100 | > 100 | 68.9 | 2.96 | 1.35 | 3.04 | 0.733 | 2.92 | 3.16 | 0.312 | 1.07 | 0.944 | 2.99
20 | Brc1ccc2c(c1)C1=C(CO2)Cc2ccccc2O1 | 61.8 | 30.6 | 54.9 | 43 | 32.3 | 47.6 | 45.1 | 38.6 | 34.3 | 37.2 |  |  |  |  |  |  |  |  |  | 
21 | CC1(C)N=C(N)N=C(N)N1c1cccc(CSc2ccccc2)c1 | > 100 | > 100 | > 100 | 43.8 | > 100 | > 100 | > 100 | > 100 | > 100 | > 100 |  |  |  |  |  |  |  |  |  | 
22 | Cn1c2ccccc2n2c3nc4ccccc4nc3c(C#N)c12 | > 100 | > 100 | > 100 | > 100 | > 79.1 | > 100 | > 100 | > 100 | > 100 | > 100 |  |  |  |  |  |  |  |  |  | 
23 | CC(=O)Nc1ccc(Nc2nc(=O)[nH]c(=O)[nH]2)cc1 | > 100 | > 100 | > 100 | > 100 | > 100 | > 100 | > 100 | > 100 | > 100 | > 100 |  |  |  |  |  |  |  |  |  | 
24 | NNC(=O)c1ccccc1NC(=O)/C(=C/c1ccccc1)NC(=O)c1ccccc1 | > 100 | > 100 | > 100 | > 100 | > 100 | > 100 | > 100 | > 100 | > 100 | > 100 |  |  |  |  |  |  |  |  |  | 
25 | COC(=O)/C=C1/OC(c2ccccc2)=C(Cl)C1=O | 22.5 | 49.2 | 44.5 | 48.5 | 38.9 | 48.7 | 39.5 | > 76.2 | 45.8 | 51.6 |  |  |  |  |  |  |  |  |  | 
26 | NS(=O)(=O)c1ccc(/C=C/c2cccc(O)c2)cc1 | 57.7 | 64.2 | > 100 | 99 | > 100 | 58.7 | > 100 | > 100 | 78.2 | 93.7 | 18.9 |  |  |  |  | 25.2 | 25.8 |  |  | 
27 | C=C(Br)CN(C#N)CC(=C)Br | > 100 | > 100 | > 100 | > 100 | > 100 | > 100 | > 100 | > 100 | > 100 | > 100 |  |  |  |  |  |  |  |  |  | 
28 | COC(=O)C(Cc1ccccc1)NC(=O)CNC(=O)CSc1nnc(COc2ccc(Cl)cc2)n1-c1ccccc1 (stereo not drawn) | 21.8 | 3.28 | 39.9 | 37.1 | 24.7 | 27.4 | 35 | 33 | 33.8 | 27.7 |  |  |  |  |  |  |  |  |  | 
29 | COc1ccc(-c2cn3c(n2)sc2cc(C)ccc23)cc1 | > 100 | > 100 | 39.7 | 37.3 | 69.6 | 47.2 | 63.2 | > 100 | 37.1 | 47.3 |  |  |  |  |  |  |  |  |  | 
30 | O=C1CSC2(CCN(CCCN3c4ccccc4Sc4ccc(Cl)cc43)CC2)N1 | 18.3 | 19.5 | 22.7 | 20.1 | 14.4 | 23.8 | 23.5 | 24.2 | 31 | 21.2 |  |  |  |  |  |  |  |  |  | 
31 | COC1CCC(OC2CC(C3(C)CCC4(CC(O)C(C)C(C(C)/C=C(\C)C(=O)C(C)CC(C)C(=O)O)O4)O3)OC3(OC(C4OC(O)(CO)C(C)CC4C)CC3C)C2C)OC1C (stereo not drawn) | < 0.0386 | 5.91 | 9.64 | 0.568 | 1.61 | 1.87 | 0.564 | 3.63 | 0.576 | 5.79 |  |  |  |  |  |  |  |  |  | 
32 | N#CC(c1ccccc1)c1cccc2ccccc12 (stereo not drawn) | 67.9 | > 100 | > 100 | > 100 | 81.8 | 76.4 | 44.1 | > 100 | 56.2 | > 100 |  |  |  |  |  |  |  |  |  | 
33 | COc1ccc(CN=CN/C(C#N)=C(\N)C#N)cc1OC | > 100 | > 100 | > 100 | > 100 | > 100 | > 100 | > 100 | > 100 | > 100 | > 100 |  |  |  |  |  |  |  |  |  | 
34 | CC1=Nn2c(nc3sc4c(c3c2=O)CCCC4)SC1 | > 100 | > 100 | > 100 | > 100 | > 100 | > 100 | > 100 | > 100 | > 100 | > 100 |  |  |  |  |  |  |  |  |  | 
